Laboratory results published in patent US5525742A, “Azidophenylcyanoguanidines as photoaffinity probes” (The Upjohn Company, priority 1994, dated 1996).
Several values for one entry are separate records, joined by “and”; a condition that tells them apart may be missing. Identical values can stand only once. Each block holds one molecule with its values, some of them ahead of it.

Columns and labels:
[1] = system: cyanoguanidine binding proteins; experiment: Photolabeling of cyanoguanidine binding proteins in A10 cells (SDS gel, autoradiography); set-up: species or system rat; details: for apparent molecular weight of the most prominent radiolabeled protein / number of radiolabeled proteins / molecular weight of radiolabeled protein: A10 membrane extracts, UV light
Procedure: (§1) To biochemically identify the proteins that specifically bind the azidophenylcyanguanidines, Example 1a, Example 2a and Example 3a were prepared. A10 cells were grown to confluence in standard culture plates and then washed extensively with EBSS-H. After the final wash, the cells were placed in EBSS-H containing one of the radiolabeled forms of the azidophenylcyanguanidine to be tested. The A10 cells were equilibrated with the radiolabeled compound for 15 minutes at 37° C. The A10 cells were placed on ice and exposed for 1 minute to 600 μwatts/cm^2 of 254 nm UV light. After photolysis, the A10 cells were washed extensively with phosphate buffered saline. Membranes from the A10 cells were solubilized in cocktail of 0.2% Triton X100 detergent and protease inhibitors. The membranes were precipitated with 4 volumes of ice cold acetone for 30 minutes. The precipitate membrane proteins were collected by centrifugation at 20,000 rpm for 30 rain at 4° C. in a Beckman SW-28 rotor. After centrifugation the supernate was discarded and the pellet was dissolved 2% sodium dodecyl sulfate (SDS) as described by O'Farrell (J. Biol. Chem. 250:4007-4021, 1975). The radiolabeled proteins were resolved on an SDS polyacrylamide gel and identified by autoradiography after the gel was stained and dried.

[2] = molecular target: T1, KATP channel in A10 rat aortic smooth muscle cells (Rattus norvegicus, UniProt Q63563); experiment: A10 membrane potential assay (DiBAC4(3) fluorescence), KATP channel opening; type: cell-based; details: for block of the hyperpolarizing effect by glyburide: 10 μM glyburide; for block of the hyperpolarizing effect by glyburide / EC50: A10 cells; for EC50: hyperpolarization of membrane potential; for potency relative to N-cyano-N'-(1,1-dimethylpropyl)-N''-3-pyridinylguanidine: A10 membrane potential assay
T1 construct: resting membrane potential of A10 rat aortic smooth muscle cells; host or cells: A10 rat aortic smooth muscle cells
T1 sequence (Q63563 1-1545 isoform Q63563-2): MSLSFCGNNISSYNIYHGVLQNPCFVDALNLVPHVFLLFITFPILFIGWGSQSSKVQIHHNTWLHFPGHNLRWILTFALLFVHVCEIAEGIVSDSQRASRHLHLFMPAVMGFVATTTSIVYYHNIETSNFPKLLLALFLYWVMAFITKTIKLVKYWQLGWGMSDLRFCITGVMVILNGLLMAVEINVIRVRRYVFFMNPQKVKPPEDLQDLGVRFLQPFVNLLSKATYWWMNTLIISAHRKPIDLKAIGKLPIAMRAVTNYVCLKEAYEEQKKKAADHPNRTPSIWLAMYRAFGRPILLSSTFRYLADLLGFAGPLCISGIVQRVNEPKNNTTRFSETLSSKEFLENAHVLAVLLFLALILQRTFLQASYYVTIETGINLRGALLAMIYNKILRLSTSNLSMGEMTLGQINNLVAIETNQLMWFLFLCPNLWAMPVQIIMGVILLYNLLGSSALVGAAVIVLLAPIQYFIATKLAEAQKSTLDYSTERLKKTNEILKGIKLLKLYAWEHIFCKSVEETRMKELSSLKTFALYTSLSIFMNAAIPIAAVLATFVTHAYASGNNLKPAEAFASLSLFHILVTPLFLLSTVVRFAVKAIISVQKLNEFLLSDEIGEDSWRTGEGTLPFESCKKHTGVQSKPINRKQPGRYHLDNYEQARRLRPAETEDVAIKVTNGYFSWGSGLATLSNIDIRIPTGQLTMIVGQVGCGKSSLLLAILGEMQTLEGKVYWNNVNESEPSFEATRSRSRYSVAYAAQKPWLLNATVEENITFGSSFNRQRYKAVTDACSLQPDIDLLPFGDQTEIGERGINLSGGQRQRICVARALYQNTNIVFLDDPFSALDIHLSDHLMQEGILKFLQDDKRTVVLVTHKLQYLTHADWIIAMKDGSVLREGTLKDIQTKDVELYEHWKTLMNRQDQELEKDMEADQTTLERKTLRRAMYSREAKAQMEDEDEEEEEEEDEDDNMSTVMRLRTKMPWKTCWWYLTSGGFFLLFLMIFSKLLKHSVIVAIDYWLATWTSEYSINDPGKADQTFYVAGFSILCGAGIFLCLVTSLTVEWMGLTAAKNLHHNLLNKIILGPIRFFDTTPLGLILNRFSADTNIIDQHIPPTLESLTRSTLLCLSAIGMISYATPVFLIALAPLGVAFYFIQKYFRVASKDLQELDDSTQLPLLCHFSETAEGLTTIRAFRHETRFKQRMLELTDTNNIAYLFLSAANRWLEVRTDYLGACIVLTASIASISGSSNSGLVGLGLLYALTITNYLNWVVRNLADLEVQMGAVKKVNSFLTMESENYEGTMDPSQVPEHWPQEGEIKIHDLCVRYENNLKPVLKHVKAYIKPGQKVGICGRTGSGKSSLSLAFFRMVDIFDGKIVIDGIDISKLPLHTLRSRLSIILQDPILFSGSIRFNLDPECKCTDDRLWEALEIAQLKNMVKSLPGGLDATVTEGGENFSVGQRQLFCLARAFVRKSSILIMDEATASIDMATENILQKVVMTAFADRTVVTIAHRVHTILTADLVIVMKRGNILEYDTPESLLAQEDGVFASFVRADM
T1 sequence (Q63664 whole entry partner): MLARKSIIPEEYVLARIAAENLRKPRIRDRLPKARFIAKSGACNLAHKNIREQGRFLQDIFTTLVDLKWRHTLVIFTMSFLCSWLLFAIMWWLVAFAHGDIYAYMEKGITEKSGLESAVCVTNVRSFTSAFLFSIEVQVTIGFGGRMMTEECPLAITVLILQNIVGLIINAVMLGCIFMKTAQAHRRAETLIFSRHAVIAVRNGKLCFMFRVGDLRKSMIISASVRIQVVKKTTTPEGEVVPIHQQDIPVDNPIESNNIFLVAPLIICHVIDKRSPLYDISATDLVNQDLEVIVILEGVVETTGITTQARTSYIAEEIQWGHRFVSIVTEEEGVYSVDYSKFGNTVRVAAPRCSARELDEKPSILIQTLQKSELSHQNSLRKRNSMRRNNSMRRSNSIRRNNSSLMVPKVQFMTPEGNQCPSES
Excerpt: (§2) Compounds that modulate KATP channel activity were examined by quantitating the effect of these compounds on the resting membrane potential of A10 rat aortic smooth muscle cells (American Type Culture Collection, number CRL-1476) using a fluorescent, potentialsensitive dye and an instrument to measure changes in cellular fluorescence. The dye of choice is bis(1,3-dibutylbarbituric acid)trimethine oxonol) DiBAC4 (3). Other voltage sensitive dyes could also be used. To optically measure changes in membrane potential, cells were subcultured onto coverglass chambers and grown to confluence. Immediately prior to analysis, cells were washed several times with Earle's balanced salt solution that was buffered to pH 7.4 with 20 mM Hepes (EBSS-H) and then placed in the buffer containing 5 μM DiBAC4 (3). Fluorescent imaging of membrane potential was carried out after the cells were equilibrated with 5 μM DiBAC4 (3) for at least 15 min at 37° C. and then placed in a 35° C. temperature-regulated mini-incubator that was mounted on the stage of laser based imaging cytometer (ACAS 570, Meridian Instruments). The ACAS 570 was configured to excite the cells at 488 nm using an argon ion laser. The fluorescent emission was monitored at 525 nm. To determine the effect of azidophenylcyanoguanidines on membrane potential, the ACAS 570 was configured to collect data once every 60 seconds for at least 25 minutes using the Kinetic program within the ACAS software. In all cases, 7 min. of baseline data were collected before the addition of the compound of interest. Changes in membrane potential were computed using a logistical model developed at Upjohn Laboratories. Control experiments established that solvents such as dimethylsulfoxide and ethanol had no effect at concentrations up to 0.8%.
In FIG. 1 the Y axis represents the change in membrane potential elicited by N-cyano-N'-(1,1-dimethylpropyl)-N''-3-pyridinylguanidine. A positive change represents a hyperpolarization of the membrane potential caused by an opening of a KATP channel. The X axis represents increasing concentrations of N-cyano-N'-(1,1-dimethylpropyl)-N''-3-pyridinylguanidine. […] The EC50 for N-cyano-N'-(1,1-dimethylpropyl)-N''-3-pyridinylguanidine in the A10 membrane potential assay is 30 nM. […] In FIG. 2 the Y axis represents change in membrane potential elicited by Example 1. A positive change represents a hyperpolarization of the membrane potential caused by an opening of a KATP channel. The X axis represents increasing concentrations of Example 1. Example 1 is structurally related to N-cyano-N'-(1,1-dimethylpropyl)-N''-3-pyridinylguanidine and has an EC50 of approximately 30 nM in the A10 assay. […] In FIG. 3 the Y axis represents the change in membrane potential elicited by Example 2. A positive change represents a hyperpolarization of the membrane potential caused by an opening of a KATP channel. The X axis represents increasing concentrations of Example 2. Example 2 is structurally related to N-cyano-N'-(1,1-dimethylpropyl)-N''-3-pyridinylguanidine and has an EC50 of approximately 30 nM in the A10 assay.
In FIG. 4A and 4B the Y axis represents a change in membrane potential. In these experiments, a change in the negative direction represents a hyperpolarization of the membrane potential caused by an opening of a KATP channel. In FIG. 4A and 4B the X axis represents time in minutes. Additional experiments indicate that 0.3 and 1.0 μM Example 3 also have no effect on the membrane potential of A10 cells (data not shown). […] Thus, within the azidophenylcyanoguanidine chemical series there are compounds that can be used to identify the cellular components required to open and close KATP close channels.

37 kilodalton protein = experiment: Competition of photolabeling of the 37 kilodalton protein by nonradiolabeled compound; type: binding, rat; details: nonradiolabeled Example 3, 1 nM to 30 uM
Procedure: as §1
(§3) There was also a 27 kilodalton protein that was radiolabeled by Example 3a and UV light.

27 kilodalton protein = experiment: Competition of photolabeling of the 27 kilodalton protein by nonradiolabeled compound; type: binding, rat; details: nonradiolabeled Example 3, 1 nM to 30 uM
Procedure: as §1, §3

[3] = molecular target: T1, KATP channel in A10 rat aortic smooth muscle cells; experiment: Reversal/block of N-cyano-N'-(1,1-dimethylpropyl)-N''-3-pyridinylguanidine-dependent KATP channel opening in A10 cells (membrane potential); type: cell-based
Excerpt: as §2
In FIG. 4A and 4B the Y axis represents a change in membrane potential. In these experiments, a change in the negative direction represents a hyperpolarization of the membrane potential caused by an opening of a KATP channel. In FIG. 4A and 4B the X axis represents time in minutes. […]

[4] = system: KATP channel in A10 cells; experiment: Photoinactivation of KATP channels in A10 cells (UV pretreatment, then opener challenge); type: cell-based, rat; details: for responsiveness to N-cyano-N'-(1,1-dimethylpropyl)-N''-3-pyridinylguanidine challenge after pretreatment and UV light: UV 254 nm, 1 min, challenge 1 μM, FIG. 5; for photoinactivation of the A10 KATP channel: compound and UV light
Excerpt: as §2
Photoinactivation of KATP channels in A10 cells was carried out on cells grown on coverglass chambers. A10 cells were grown to confluence and washed 3 times with EBSS-H. The A10 cells were then equilibrated for 15 min at 37° C. with 100 nM to 30 μM of the azidophenyl-cyanoguanidines. The A10 cells were exposed to 600 μwatts/cm^2 of 254 nm light for 1 min to photoactivate these azidophenyl-cyanoguanidines. After photolysis, the A10 cells were extensively washed with EBSS-H and finally placed in EBSS-H containing 5 μM DiBAC4 (3). The pretreated cells were then challenged with 1 μM N-cyano-N'-(1,1-dimethylpropyl)-N.increment.-3-pyridinylguanidine and changes in membrane potential were measured as described in Section I, above, ASSAY OF KATP CHANNEL MODULATORS. If the KATP channels in A10 cells were covalently photoinactivated by the azidophenyl-cyanoguanidines, then the cells would be unresponsive to the subsequent challenge of KATP openers such as N-cyano-N'-(1,1-dimethylpropyl)-N''-3-pyridinylguanidine. […]

47 kilodalton protein = experiment: Competition of photolabeling of the 47 kilodalton protein by nonradiolabeled compound; type: binding, rat
Procedure: as §1, with “dried. […]” for “dried.”

[5] = system: calcium-activated potassium channel; experiment: Responsiveness of photoinactivated A10 cells to agents that open the calcium-activated potassium channel; type: cell-based, rat; details: maximum concentration and UV light
56 kilodalton protein = experiment: Competition of photolabeling of the 56 kilodalton protein by nonradiolabeled compound; type: binding, rat; details: nonradiolabeled Example 2, 1 nM to 30 uM
Procedure: as §1, with “dried. […]” for “dried.”

Structure (SMILES): [3H]C([3H])([3H])C([3H])([3H])C(C)(C)NC(=NC#N)Nc1cc(Cl)cc(N=[N+]=[N-])c1 [Example 1a, N-(3-azido-5-chlorophenyl)-N'-cyano-N''-(1,1-dimethyl-2,2,3,3,3-T5-propyl)guanidine]
apparent molecular weight of the most prominent radiolabeled protein [1]: 47 kilodaltons
number of radiolabeled proteins [1]: several radiolabeled proteins
labeling in the absence of UV light ([1]; no UV light, control experiments): no proteins were labeled

Structure (SMILES): CCC(C)(C)N=C(NC#N)Nc1cc(Cl)cc(N=[N+]=[N-])c1 [Example 1, N-(3-azido-5-chlorophenyl)-N'-cyano-N"-(1,1-dimethylpropyl)guanidine]
block of the hyperpolarizing effect by glyburide ([2]; data not shown): blocked
EC50 [2]: ~0.03 µM
potency relative to N-cyano-N'-(1,1-dimethylpropyl)-N''-3-pyridinylguanidine [2]: as potent as
responsiveness to N-cyano-N'-(1,1-dimethylpropyl)-N''-3-pyridinylguanidine challenge after pretreatment and UV light [4]: concentration dependent loss
photoinactivation of the A10 KATP channel [4]: specifically photoinactivated the A10 KATP channel
inhibition of radiolabeling of the 47 kilodalton protein by Example 1a (47 kilodalton protein; nonradiolabeled Example 1, 30 nM to 30 uM): specifically inhibited
responsiveness to agents that open the calcium-activated potassium channel after pretreatment [5]: remained responsive

Structure (SMILES): N#CN=C(Nc1cc([125I])cc(N=[N+]=[N-])c1)NC1(c2cccc(F)c2)CCC1 [Example 3a, N-(3-azido-5-iodo-125I-phenyl)-N'-cyano-N''-[1-(3-fluorophenyl)cyclobutyl]guanidine]
apparent molecular weight of the most prominent radiolabeled protein [1]: 37 kilodaltons
molecular weight of radiolabeled protein [1]: 27 kilodalton
number of radiolabeled proteins [1]: several radiolabeled proteins

Structure (SMILES): CCC(C)(C)NC(=NC#N)Nc1cc([125I])cc(N=[N+]=[N-])c1 [Example 2a, N-(3-azido-5-iodo-^125 I-phenyl)-N'-cyano-N''-(1,1-dimethylpropyl) guanidine]
molecular weight of radiolabeled protein [1]: 47 kilodalton and 56 kilodalton

Further lines, with some results ahead:

effect on the membrane potential of A10 cells ([2]; 0.3 μM, data not shown): no effect
effect on the membrane potential of A10 cells ([2]; 1.0 μM, data not shown): no effect
effect on the membrane potential of A10 cells ([2]; 10 μM, FIG. 4A): no effect
reversal of the effect of N-cyano-N'-(1,1-dimethylpropyl)-N''-3-pyridinylguanidine ([3]; 10 μM, in continuing presence of 1 μM opener, FIG. 4B): reverses the effect
block of opener-dependent opening of KATP channels ([3]; additional experiments, concentration dependence): in a concentration dependent manner
mode of action on the KATP channel in A10 cells ([3]; conclusion from the data): blocker of the KATP channel
Structure (SMILES): N#CNC(=NC1(c2cccc(F)c2)CCC1)Nc1cc(I)cc(N=[N+]=[N-])c1 [Example 3, N-(3-azido-5-iodophenyl)-N'-cyano-N"-(1-(3-fluorophenyl)cyclobutyl)guanidine]
inhibition of radiolabeling of the 37 kilodalton protein by Example 3a (37 kilodalton protein): specifically inhibited
inhibition of radiolabeling of the 27 kilodalton protein by Example 3a (27 kilodalton protein): specifically inhibited

opening of the A10 KATP channel with hyperpolarization ([2]; 1 μM, FIG. 4B): opens the A10 KATP channel
block of the hyperpolarizing effect by glyburide ([2]; data not shown): blocked
EC50 [2]: 0.03 µM
Structure (SMILES): CCC(C)(C)NC(=Nc1cccnc1)NC#N [N-cyano-N'-(1,1-dimethylpropyl)-N''-3-pyridinylguanidine, reference compound]
responsiveness to N-cyano-N'-(1,1-dimethylpropyl)-N''-3-pyridinylguanidine challenge after pretreatment and UV light [4]: remain nearly completely responsive

block of the hyperpolarizing effect by glyburide ([2]; data not shown): blocked
EC50 [2]: ~0.03 µM
potency relative to N-cyano-N'-(1,1-dimethylpropyl)-N''-3-pyridinylguanidine [2]: as potent as
Structure (SMILES): CCC(C)(C)N=C(NC#N)Nc1cc(I)cc(N=[N+]=[N-])c1 [Example 2, N-(3-azido-5-iodophenyl)-N'-cyano-N''-(1,1-dimethylpropyl)guanidine]
photoinactivation of the A10 KATP channel [4]: specifically photoinactivated the A10 KATP channel
inhibition of radiolabeling of the 47 kilodalton protein by Example 2a (47 kilodalton protein; nonradiolabeled Example 2, 1 nM to 30 uM): specifically inhibited
responsiveness to agents that open the calcium-activated potassium channel after pretreatment [5]: remained responsive
inhibition of radiolabeling of the 56 kilodalton protein by Example 2a (56 kilodalton protein): specifically inhibited
